21 compounds from US20220235051A1, “DI-FLUORO AZEPANES AS HBV CAPSID ASSEMBLY MODULATORS” (priority 2019, published 2022) can be followed below.

In general, EC50 refers to the concentration giving half of the maximal effect.

The structures appear in SMILES notation.

One assay has as its system HBV. Description: HBV replication inhibition assay (BDNA assay) in HepG2.2.15 cells. The following applies: HepG2.2.15 cells, BDNA assay, encapsidated HBV DNA in supernatant at day 6; read-out: HepG2.2.15 EC50 HBV DNA. The assay is classed as cell-based. As to the method: HBV replication inhibition by the disclosed compounds were determined in cells infected or transfected with HBV or cells with stably integrated HBV, such as HepG2.2.15 cells (Sells et al. 1987). In this example, HepG2.2.15 cells were maintained in cell culture medium containing 10% fetal bovine serum (FBS), Geneticin, L-glutamine, penicillin and streptomycin. HepG2.2.15 cells were seeded in 96-well plates at a density of 40,000 cells/well and were treated with serially diluted compounds at a final DMSO concentration of 0.5% either alone or in combination by adding drugs in a checker box format. Cells were incubated with compounds for three days, after which medium was removed and fresh medium containing compounds was added to cells and incubated for another three days. At day 6, supernatant was removed and treated with DNase at 37° C. for 60 minutes, followed by enzyme inactivation at 75° C. for 15 minutes. Encapsidated HBV DNA was released from the virions and covalently linked HBV polymerase by incubating in lysis buffer (Affymetrix QS0010) containing 2.5 μg proteinase K at 50° C. for 40 minutes. HBV DNA was denatured by addition of 0.2 M NaOH and detected using a branched DNA (BDNA) QuantiGene assay kit according to manufacturer recommendation (Affymetrix). HBV DNA levels were also quantified using qPCR, based on amplification of encapsidated HBV DNA extraction with QuickExtraction Solution (Epicentre Biotechnologies) and amplification of HBV DNA using HBV specific PCR probes that can hybridize to HBV DNA and a fluorescently labeled probe for quantitation. In addition, cell viability of HepG2.2.15 cells incubated with test compounds alone or in combination was determined by using CellTitre-Glo reagent according to the manufacturer protocol (Promega). The mean background signal from wells containing only culture medium was subtracted from all other samples, and percent inhibition at each compound concentration was calculated by normalizing to signals from HepG2.2.15 cells treated with 0.5% DMSO using equation E1.
% inhibition=(DMSOave−Xi)/DMSOave×100% E1
where DMSOave is the mean signal calculated from the wells that were treated with DMSO control (0% inhibition control) and Xi is the signal measured from the individual wells. EC50 values, effective concentrations that achieved 50% inhibitory effect, were determined by non-linear fitting using Graphpad Prism software (San Diego, Calif.) and equation E2.
Y=Ymin+(Ymax−Ymin)/(1+10(Log EC50−X)×HillSlope) E2
where Y represents percent inhibition values and X represents the logarithm of compound concentrations.
Selected disclosed compounds were assayed in the HBV replication assay (BDNA assay), as described above, and a representative group of these active compounds is shown in Table 3.
Take `C[C@@H]1Cc2nn3c(c2CN1C(=O)Nc1ccc(F)c(C#N)c1)C(F)(F)CCC(CO)C3` (single isomer, unassigned) [Example 75, (3R,8S*)-N-(3-Cyano-4-fluorophenyl)-11,11-difluoro-8-(hydroxymethyl) -3-methyl-3,4,8,9,10,11-hexahydro-1H-pyrido[4′,3′:3,4]pyrazolo[1,5-a]azepine-2(7H)-carboxamide]: the EC50 is 0.005 µM.

Staying with this assay, now noted: Hepatitis B virus, HepG2.2.15, 144 h, HepG2.2.15 cells, BDNA assay, encapsidated HBV DNA in supernatant at day 6; read-out: HepG2.2.15 EC50 HBV DNA.
On to `C[C@@H]1Cc2nn3c(c2CN1C(=O)Nc1ccc(F)c(C(F)(F)F)c1)C(F)(F)CC[C@@H](O)C3` [Example 69, (3R,8R)-11,11-Difluoro-N-(4-fluoro-3-(trifluoromethyl)phenyl)-8-hydroxy-3-methyl-3,4,8,9,10,11-hexahydro-1H-pyrido[4′,3′:3,4]pyrazolo[1,5-a]azepine-2(7H)-carboxamide], for which the EC50 was 0.007 µM.

Turning to `O=C(Nc1ccnc(Br)c1F)N1CCc2nn3c(c2C1)C(F)(F)CC(CO)CC3` (single isomer, unassigned) [Example 133, (S*)-N-(2-Bromo-3-fluoropyridin-4-yl)-11,11-difluoro-9-(hydroxymethyl)-3,4,8,9,10,11-hexahydro-1H-pyrido[4′,3′:3,4]pyrazolo[1,5-a]azepine-2(7H)-carboxamide], the 50% effective concentration (EC50) was 0.038 µM.

Take `C[C@@H]1Cc2nn3c(c2CN1C(=O)Nc1ccc(F)c(C#N)c1)C(F)(F)CC(O)CC3` (single isomer, unassigned) [Example 119, (3R,9S*)-N-(3-Cyano-4-fluorophenyl)-11,11-difluoro-9-hydroxyl-3-methyl-3,4,8,9,10,11-hexahydro-1H-pyrido[4′,3′:3,4]pyrazolo[1,5-a]azepine-2(7H)-carboxamide]: the EC50 is 0.001 µM.

Consider `COC(=O)NCC1CCC(F)(F)c2c3c(nn2C1)CCN(C(=O)Nc1ccc(F)c(C#N)c1)C3` (stereo not drawn) [Example 53, Methyl ((2-((3-cyano-4-fluorophenyl)carbamoyl)-11,11-difluoro-2,3,4,7,8,9,10,11-octahydro-1H-pyrido[4′,3′:3,4]pyrazolo[1,5-a]azepin-8-yl)methyl)-carbamate], for which the EC50 was found to be 0.01 µM.

As for `N#Cc1c(F)ccc(NC(=O)N2CCc3nn4c(c3C2)C(F)(F)CC[C@H](O)C4)c1F` [Example 6, (S)-N-(3-Cyano-2,4-difluorophenyl)-11,11-difluoro-8-hydroxy-3,4,8,9,10,11-hexahydro-1H-pyrido[4′,3′:3,4]pyrazolo[1,5-a]azepine-2(7H)-carboxamide], the EC50 is 0.044 µM.

Take `C#C[C@]1(O)CCC(F)(F)c2c3c(nn2C1)C[C@@H](C)N(C(=O)Nc1ccnc(C(F)F)c1F)C3` (relative stereo) [Example 100, (3R,8S*)-N-(2-Difluoromethyl)-3-fluoropyridin-4-yl)-8-ethynyl-11,11-difluoro-8-hydroxy-3-methyl-3,4,8,9,10,11-hexahydro-1H-pyrido[4′,3′:3,4]pyrazolo[1,5-a]azepine-2(7H)-carboxamide]: the EC50 is 0.168 µM.

`C[C@@H]1Cc2nn3c(c2CN1C(=O)Nc1ccc(F)c(C#N)c1)C(F)(F)C(O)CCC3` (stereo partly drawn) [Example 143, (3R)-N-(3-Cyano-4-fluorophenyl)-11,11-difluoro-10-hydroxy-3-methyl-1,3,4,7,8,9,10,11-octahydro-2H-pyrido[4′,3′:3,4]pyrazolo[1,5-a]azepine-2-carboxamide]: the EC50 amounted to 0.154 µM.

With `CC(=O)NCC1CCC(F)(F)c2c3c(nn2C1)CCN(C(=O)Nc1ccnc(Br)c1F)C3` (stereo not drawn) [Example 50, 8-(Acetamidomethyl)-N-(2-bromo-3-fluoropyridin-4-yl)-11,11-difluoro-3,4,8,9,10,11-hexahydro-1H-pyrido[4′,3′:3,4]pyrazolo[1,5-a]azepine-2(7H)-carboxamide], the 50% effective concentration (EC50) was found to be 0.11 µM.

`N#Cc1cc(NC(=O)N2CCc3nn4c(c3C2)C(F)(F)CC[C@@H](OCC(F)F)C4)ccc1F` [Example 14, (R)-N-(3-Cyano-4-fluorophenyl)-8-(2,2-difluoroethoxy)-11,11-difluoro-3,4,8,9,10,11-hexahydro-1H-pyrido[4′,3′:3,4]pyrazolo[1,5-a]azepine-2(7H)-carboxamide]: the EC50 came out at 0.051 µM.

For the compound `O=C(Nc1ccc(F)c(Br)c1F)N1CCc2nn3c(c2C1)C(F)(F)CC[C@H](O)C3` [Example 7, (S)-N-(3-Bromo-2,4-difluorophenyl)-11,11-difluoro-8-hydroxy-3,4,8,9,10,11-hexahydro-1H-pyrido[4′,3′:3,4]pyrazolo[1,5-a]azepine-2(7H)-carboxamide], the EC50 worked out at 0.031 µM.

In the case of `C[C@@H]1Cc2nn3c(c2CN1C(=O)Nc1ccc(F)c(C#N)c1)C(F)(F)CC(O)(CF)CC3` (single isomer, unassigned) [Example 128, (3R,9R*)-N-(3-Cyano-4-fluorophenyl)-11,11-difluoro-9-(fluoromethyl)-9-hydroxy-3-methyl-3,4,8,9,10,11-hexahydro-1H-pyrido[4′,3′:3,4]pyrazolo[1,5-a]azepine-2(7H)-carboxamide], the half-maximal effective concentration (EC50) amounted to 0.001 µM.

In the case of `N#Cc1cc(NC(=O)N2CCc3nn4c(c3C2)C(F)(F)CC[C@@H](O)C4)ccc1F` [Example 8, (R)-N-(3-Cyano-4-fluorophenyl)-11,11-difluoro-8-hydroxy-3,4,8,9,10,11-hexahydro-1H-pyrido[4′,3′:3,4]pyrazolo[1,5-a]azepine-2(7H)-carboxamide], the EC50 is 0.01 µM.

For the compound `C[C@@H]1Cc2nn3c(c2CN1C(=O)Nc1ccc(F)c(C#N)c1)C(F)(F)CC[C@@H](O)C3` [Example 67, (3R,8R)-N-(3-cyano-4-fluorophenyl)-11,11-difluoro-8-hydroxy-3-methyl-3,4,8,9,10,11-hexahydro-1H-pyrido[4′,3′:3,4]pyrazolo[1,5-a]azepine-2(7H)-carboxamide], the EC50 stood at 0.004 µM.

Turning to `C[C@@H]1Cc2nn3c(c2CN1C(=O)Nc1ccnc(Br)c1F)C(F)(F)CC[C@H](O)C3` [Example 72, (3R,8S)-N-(2-Bromo-3-fluoropyridin-4-yl)-11,11-difluoro-8-hydroxy-3-methyl-3,4,8,9,10,11-hexahydro-1H-pyrido[4′,3′:3,4]pyrazolo[1,5-a]azepine-2(7H)-carboxamide], the EC50 is 0.009 µM.

On to `N#Cc1cc(NC(=O)N2CCc3nn4c(c3C2)C(F)(F)CC[C@H](O)C4)ccc1F` [Example 3, (S)-N-(3-Cyano-4-fluorophenyl)-11,11-difluoro-8-hydroxy-3,4,8,9,10,11-hexahydro-1H-pyrido[4′,3′:3,4]pyrazolo[1,5-a]azepine-2(7H)-carboxamide], for which the EC50 is 0.022 µM.

As for `C[C@@H]1Cc2nn3c(c2CN1C(=O)Nc1ccnc(Br)c1F)C(F)(F)CCC(O)(CF)C3` (single isomer, unassigned) [Example 84, (3R,8R*)-N-(2-Bromo-3-fluoropyridin-4-yl)-11,11-difluoro-8-(fluoromethyl)-8-hydroxy-3-methyl-3,4,8,9,10,11-hexahydro-1H-pyrido[4′,3′:3,4]pyrazolo[1,5-a]azepine-2(7H)-carboxamide], the EC50 was 0.069 µM.

Take `C=C1CCC(F)(F)c2c3c(nn2C1)CCN(C(=O)Nc1ccc(F)c(C#N)c1)C3` [Example 1, N-(3-Cyano-4-fluorophenyl)-11,11-difluoro-8-methylene-3,4,8,9,10,11-hexahydro-1H-pyrido[4′,3′:3,4]pyrazolo[1,5-a]azepine-2(7H)-carboxamide]: the EC50 turned out to be 0.044 µM.

As to `C[C@@H]1Cc2nn3c(c2CN1C(=O)Nc1ccc(F)c(C(F)(F)F)c1)C(F)(F)CC[C@H](O)C3` [Example 73, (3R,8S)-11,11-Difluoro-N-(4-fluoro-3-(trifluoromethyl)phenyl)-8-hydroxy-3-methyl-3,4,8,9,10,11-hexahydro-1H-pyrido[4′,3′:3,4]pyrazolo[1,5-a]azepine-2(7H)-carboxamide], the EC50 came to 0.002 µM.

For the compound `N#Cc1c(F)ccc(NC(=O)N2CCc3nn4c(c3C2)C(F)(F)CC[C@@H](O)C4)c1F` [Example 11, (R)-N-(3-Cyano-2,4-difluorophenyl)-11,11-difluoro-8-hydroxy-3,4,8,9,10,11-hexahydro-1H-pyrido[4′,3′:3,4]pyrazolo[1,5-a]azepine-2(7H)-carboxamide], the EC50 came out at 0.024 µM.

On to `C[C@@H]1Cc2nn3c(c2CN1C(=O)Nc1ccc(F)c(C#N)c1)C(F)(F)C[C@@H](CO)CC3` (relative stereo) [Example 132], for which the EC50 turned out to be 0.007 µM.
